This note sets out measurements from patent US20170227553A1, “COMPOSITIONS AND METHODS FOR IDENTIFYING AND TREATING CONDITIONS INVOLVING HSF1 ACTIVITY” (Duke University, priority 2014, published 2017).

Test [1] relates to Htt-Q74 expressing PC12 cells. Nature of the test: Hsp70 immunoblot after CK2 inhibitor pre-treatment, Htt-Q74 induction and heat shock. The class given is cell-based, rat. The note with it: 0.5, 1 and 5 μM for 15 h prior to doxycycline induction; heat shock 42° C. 1 h, 7 h recovery. The procedure: Then cells were either not treated (−Dox) or treated with doxycycline at 1 microgram/mL during 3 days (+Dox) at 37° C. Cells were then heat shocked at 42° C. (1 h) followed by 7 h recovery (HS) at 37° C. Total protein was analyzed by SDS-PAGE and immunoblotting for Hsp70 and GAPDH. (D) Cells from CK2 kinase inhibitor treatment were analyzed by fluorescence microscopy using GFP as a marker for Htt-Q74 aggregation and the number of cells with inclusions bodies was quantified and normalized with total cell number from DIC images, as a measure of Htt-Q74 protein aggregation. Data are presented as mean±SE from three separate experiments (* P<0.05, ** P<0.01). (E) Htt-Q74 PC12 cells were incubated at 37° C. in a 96-well plate in the presence of either DMSO or the kinase inhibitor TID43 at 5 microMolar final concentration during 15 h prior to Htt-Q74 induction by doxycycline. Cells were then either not treated or treated with doxycycline at 1 microgram/mL for 3 days (+Dox) at 37° C. and then heat shocked at 42° C. (1 h) followed by 7 h recovery (HS) at 37° C. Cell viability was analyzed using the Cell Titer Glo assay (Promega) and values were expressed as percentage of viable cells compared with untreated cells at 37° C. Data are presented as means±SE from three separate experiments (* P<0.05). […]

Test [2] has as its system HD cell models. Nature of the test: HSF1 levels revived with CK2 inhibitors in HD cell models. The class given is cell-based.

For the molecule `Cn1cc(C2=C(c3ccc(Cl)cc3Cl)C(=O)NC2=O)c2ccccc21` [SB216763], the “HSF1 activation, Hsp70 expression levels (immunoblot)” value in test [1] is “rescue HSF1 activation, Hsp70 expression levels”. The HSF1 levels entry in test [2] is listed as “revived”. For `Brc1c(Br)c(Br)c2[nH]cnc2c1Br` [TBBz], in test [2], the HSF1 levels entry is “revived”. Same read-out and setting: the value for `O=C(O)c1c[nH]c2c(Cl)c(Cl)ccc2c1=O` [Cay10577, 7,8-dichloro-1,4-dihydro-4-oxo-3-quinolinecarboxylic acid] was “revived”.

In the case of `Cc1cc(O)c2c(c1)C(=O)c1cc(O)cc(O)c1C2=O` [Emodin], the “HSF1 activation, Hsp70 expression levels (immunoblot)” value in test [1] is given as “rescue HSF1 activation, Hsp70 expression levels”.
